From PMC4696493 (RSC advances, 2014)
Values after ≈ are worked out from the molar mass of the structure shown. Read-outs that look alike come from different tables or passages of the source. No end group written: not given here.

Columns and labels:
[1] = test system: E. coli K12
[2] = test system: Bacillus subtilis PY79
[3] = biological target: G-actin (Oryctolagus cuniculus, UniProt P68135); test: Surface plasmon resonance, actin binding; design: species or system rabbit

Row | Compound | MIC ([1]; E. coli K12, 100 mM NaCl, tryptic soy broth (TSB)) | MIC ([1]; E. coli K12, no salt, tryptic soy broth (TSB)) | MIC ([2]; measured with B. subtilis PY79, LB, 37 °C) | Kd [3] | MIC ([2]; PY79) | MIC ([1]; K12)
1 | CC[C@H](C)[C@H](NC(=O)[C@H](CCCCN)NC(=O)[C@H](CCC(=O)O)NC(=O)[C@H](CCCCN)NC(=O)[C@H](CO)NC(=O)[C@H](CCCCN)NC(=O)[C@H](CCCNC(=N)N)NC(=O)[C@H](Cc1ccccc1)NC(=O)[C@H](Cc1ccccc1)NC(=O)[C@H](CC(=O)O)NC(=O)CNC(=O)[C@H](CC(C)C)NC(=O)[C@@H](N)CC(C)C)C(=O)NCC(=O)N[C@@H](CCCCN)C(=O)N[C@@H](CCC(=O)O)C(=O)N[C@@H](Cc1ccccc1)C(=O)N[C@@H](CCCCN)C(=O)N[C@@H](CCCNC(=N)N)C(=O)N[C@H](C(=O)N[C@H](C(=O)N[C@@H](CCC(N)=O)C(=O)N[C@@H](CCCNC(=N)N)C(=O)N[C@H](C(=O)N[C@@H](CCCCN)C(=O)N[C@@H](CC(=O)O)C(=O)N[C@@H](Cc1ccccc1)C(=O)N[C@@H](CC(C)C)C(=O)N[C@@H](CCCNC(=N)N)C(=O)N[C@@H](CC(N)=O)C(=O)N[C@@H](CC(C)C)C(=O)N[C@H](C(=O)N1CCC[C@H]1C(=O)N[C@@H](CCCNC(=N)N)C(=O)N[C@H](C(=O)N[C@@H](CCC(=O)O)C(=O)N[C@@H](CO)C(=O)O)[C@@H](C)O)C(C)C)[C@@H](C)CC)C(C)C)[C@@H](C)CC [LL-37, reference compound] | 10 µM (≈ 44.9 µg/mL) | 10 µM | 1.1 µM (≈ 4.94 µg/mL) | – | – | –
2 | FKRIVQRIKDFLR-NH2 [FK-13] | – | – | – | 18.6 µM | 3.3 µM | –
3 | KRIVQRIKDF-NH2 [KR-10] | – | – | – | 28.4 µM | – | >160 µM
4 | KRIVQRIKDFLR-NH2 [KR-12] | – | – | – | 11.8 µM | 6.6 µM | –
